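Interpolation was linear, between the two tested concentrations surrounding the appropriate level; five concentrations were tested over 48 hours in 96-well plates. Abbreviation: GI50, concentration required for 50% inhibition of growth.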 The source made the active and inactive calls. Rule as the data show it: active = GI50 up to about 1.1 µM and inactive = higher.
Key:
Assay in all cases: NCI tumour cell line growth inhibition, 48 h
786-0 = tested on: 786-0
A498 = tested on: A498
A549 = tested on: A549
ACHN = tested on: ACHN
CAKI-1 = tested on: CAKI-1
CCRF-CEM = tested on: CCRF-CEM
COLO 205 = tested on: COLO 205
DU-145 = tested on: DU-145
EKVX = tested on: EKVX
HCC 2998 = tested on: HCC 2998
HCT-116 = tested on: HCT-116
HCT-15 = tested on: HCT-15
HL-60 = tested on: HL-60
HOP-62 = tested on: HOP-62
HOP-92 = tested on: HOP-92
HT-29 = tested on: HT-29
IGROV-1 = tested on: IGROV-1
K562 = tested on: K562
KM12 = tested on: KM12
LOX IMVI = tested on: LOX IMVI
M14 = tested on: M14
MCF7 = tested on: MCF7
MDA-MB-231 = tested on: MDA-MB-231
MDA-MB-435 = tested on: MDA-MB-435
MDA-N = tested on: MDA-N
MOLT-4 = tested on: MOLT-4
Malme-3M = tested on: Malme-3M
NCI-H226 = tested on: NCI-H226
NCI-H23 = tested on: NCI-H23
NCI-H522 = tested on: NCI-H522
NCI/ADR-RES = tested on: NCI/ADR-RES
OVCAR-3 = tested on: OVCAR-3
OVCAR-4 = tested on: OVCAR-4
OVCAR-8 = tested on: OVCAR-8
PC-3 = tested on: PC-3
RPMI-8226 = tested on: RPMI-8226
RXF 393 = tested on: RXF 393
SF-295 = tested on: SF-295
SF-539 = tested on: SF-539
SK-MEL-28 = tested on: SK-MEL-28
SK-MEL-2 = tested on: SK-MEL-2
SK-MEL-5 = tested on: SK-MEL-5
SK-OV-3 = tested on: SK-OV-3
SN12C = tested on: SN12C
SNB-19 = tested on: SNB-19
SNB-75 = tested on: SNB-75
SW-620 = tested on: SW-620
T47D = tested on: T47D
TK-10 = tested on: TK-10
U-251 = tested on: U-251
UACC-257 = tested on: UACC-257
UACC-62 = tested on: UACC-62
UO-31 = tested on: UO-31
Hs-578T = tested on: Hs-578T
NCI-H460 = tested on: NCI-H460
OVCAR-5 = tested on: OVCAR-5
SF-268 = tested on: SF-268

[N-]=[N+]=C1N=CN=C1c1nc[nH]n1 was tested, and the GI50 (786-0) was 21.9 µM (inactive), the GI50 (A498) was 20.2 µM (inactive) and the GI50 (A549) was > 100 µM (inactive). The GI50 (ACHN) was 39 µM (inactive), the GI50 (CAKI-1) was 6.31 µM (inactive) and the GI50 (CCRF-CEM) was 3.98 µM (inactive). The GI50 (COLO 205) was 45.1 µM (inactive), the GI50 (DU-145) was 48.5 µM (inactive) and the GI50 (EKVX) was 40 µM (inactive). The GI50 (HCC 2998) was 63 µM (inactive), the GI50 (HCT-116) was 25 µM (inactive) and the GI50 (HCT-15) was 63 µM. The GI50 (HL-60) was 5.83 µM (inactive), the GI50 (HOP-62) was 35.7 µM (inactive) and the GI50 (HOP-92) was 12.4 µM (inactive). The GI50 (HT-29) was > 100 µM (inactive), the GI50 (IGROV-1) was 29 µM (inactive) and the GI50 (K562) was 14.9 µM (inactive). The GI50 (KM12) was 93.5 µM (inactive), the GI50 (LOX IMVI) was 12 µM (inactive) and the GI50 (M14) was 40.6 µM (inactive). For the same compound, the GI50 (MCF7) was 81.1 µM (inactive), the GI50 (MDA-MB-231) was 29 µM (inactive) and the GI50 (MDA-MB-435) was 31.3 µM (inactive). For the same compound, the GI50 (MDA-N) was 41.9 µM (inactive), the GI50 (MOLT-4) was 6.27 µM (inactive) and the GI50 (Malme-3M) was 10.9 µM (inactive). The GI50 (NCI-H226) was > 100 µM (inactive), the GI50 (NCI-H23) was 34.1 µM (inactive) and the GI50 (NCI-H522) was 30.7 µM (inactive). The GI50 (NCI/ADR-RES) was 22.1 µM (inactive), the GI50 (OVCAR-3) was 32.2 µM (inactive) and the GI50 (OVCAR-4) was 31.8 µM (inactive). The GI50 (OVCAR-8) was 21.4 µM (inactive), the GI50 (PC-3) was > 100 µM (inactive) and the GI50 (RPMI-8226) was 10.8 µM (inactive). The GI50 (RXF 393) was 48.8 µM (inactive), the GI50 (SF-295) was 82.4 µM (inactive) and the GI50 (SF-539) was 15.3 µM (inactive). For the same compound, the GI50 (SK-MEL-28) was 76.7 µM (inactive), the GI50 (SK-MEL-2) was 94.8 µM (inactive) and the GI50 (SK-MEL-5) was 57.8 µM (inactive). For the same compound, the GI50 (SK-OV-3) was > 100 µM (inactive), the GI50 (SN12C) was 20.9 µM (inactive) and the GI50 (SNB-19) was 80.2 µM (inactive). The GI50 (SNB-75) was 32.3 µM (inactive), the GI50 (SW-620) was 22.1 µM (inactive) and the GI50 (T47D) was 17.4 µM (inactive). The GI50 (TK-10) was 51.2 µM (inactive), the GI50 (U-251) was 27 µM (inactive) and the GI50 (UACC-257) was 57 µM (inactive). The GI50 (UACC-62) was 16.6 µM (inactive) and the GI50 (UO-31) was 19.6 µM (inactive).

With CN1N=C(c2ccncc2)OC1c1ccc(Cl)cc1Cl (stereo not given) the GI50 (786-0) was 97.7 µM (inactive), the GI50 (A498) was 49.9 µM (inactive) and the GI50 (A549) was > 100 µM (inactive). For the same compound, the GI50 (ACHN) was 74.6 µM (inactive), the GI50 (CCRF-CEM) was 48.6 µM (inactive) and the GI50 (COLO 205) was 36.1 µM (inactive). For the same compound, the GI50 (DU-145) was > 100 µM (inactive), the GI50 (EKVX) was 41.7 µM (inactive) and the GI50 (HCC 2998) was > 100 µM (inactive). The GI50 (HCT-116) was 93.1 µM (inactive), the GI50 (HCT-15) was greater than 100 µM and the GI50 (HL-60) was 41.2 µM (inactive). The GI50 (HOP-62) was > 100 µM (inactive), the GI50 (HT-29) was 59.2 µM (inactive) and the GI50 (Hs-578T) was > 100 µM (inactive). The GI50 (IGROV-1) was > 100 µM (inactive), the GI50 (K562) was 50.5 µM (inactive) and the GI50 (KM12) was > 100 µM (inactive). For the same compound, the GI50 (LOX IMVI) was > 100 µM (inactive), the GI50 (M14) was 95.3 µM (inactive) and the GI50 (MCF7) was > 100 µM (inactive). The GI50 (MDA-MB-231) was 87.9 µM (inactive), the GI50 (MDA-MB-435) was 63.7 µM (inactive) and the GI50 (MDA-N) was > 100 µM (inactive). For the same compound, the GI50 (MOLT-4) was 42 µM (inactive), the GI50 (NCI-H226) was 29.2 µM (inactive) and the GI50 (NCI-H23) was > 100 µM (inactive). For the same compound, the GI50 (NCI-H460) was > 100 µM (inactive), the GI50 (NCI-H522) was 72.6 µM (inactive) and the GI50 (NCI/ADR-RES) was 71.8 µM (inactive). The GI50 (OVCAR-3) was 64.3 µM (inactive), the GI50 (OVCAR-4) was 43.6 µM (inactive) and the GI50 (OVCAR-5) was > 100 µM (inactive). The GI50 (OVCAR-8) was > 100 µM (inactive), the GI50 (PC-3) was 63.1 µM (inactive) and the GI50 (RPMI-8226) was 72.8 µM (inactive). The GI50 (RXF 393) was > 100 µM (inactive), the GI50 (SF-268) was > 100 µM (inactive) and the GI50 (SF-295) was 66.2 µM (inactive). For the same compound, the GI50 (SF-539) was 44.5 µM (inactive), the GI50 (SK-MEL-28) was > 100 µM (inactive) and the GI50 (SK-MEL-2) was > 100 µM (inactive). For the same compound, the GI50 (SK-MEL-5) was 65.6 µM (inactive), the GI50 (SK-OV-3) was 93.3 µM (inactive) and the GI50 (SN12C) was 75.3 µM (inactive). For the same compound, the GI50 (SNB-19) was > 100 µM (inactive), the GI50 (SNB-75) was 12.6 µM (inactive) and the GI50 (SW-620) was > 100 µM (inactive). For the same compound, the GI50 (T47D) was 60.3 µM (inactive), the GI50 (TK-10) was > 100 µM (inactive) and the GI50 (U-251) was > 100 µM (inactive). For the same compound, the GI50 (UACC-257) was > 100 µM (inactive), the GI50 (UACC-62) was 22.8 µM (inactive) and the GI50 (UO-31) was 93.5 µM (inactive).

CC1CC/C(=C\c2ccc(F)cc2)C2=C1C(c1ccc(F)cc1)n1c(s/c(=C\c3ccc(Cl)cc3)c1=O)=N2 (stereo not given) was tested, and the GI50 (786-0) was > 100 µM (inactive), the GI50 (A498) was > 100 µM (inactive) and the GI50 (A549) was > 100 µM (inactive). For the same compound, the GI50 (ACHN) was > 100 µM (inactive), the GI50 (CAKI-1) was > 100 µM (inactive) and the GI50 (CCRF-CEM) was > 100 µM (inactive). For the same compound, the GI50 (DU-145) was > 100 µM (inactive), the GI50 (EKVX) was > 100 µM (inactive) and the GI50 (HCT-116) was > 100 µM (inactive). For the same compound, the GI50 (HCT-15) was greater than 100 µM, the GI50 (HL-60) was > 100 µM (inactive) and the GI50 (HOP-62) was > 100 µM (inactive). For the same compound, the GI50 (HOP-92) was > 100 µM (inactive), the GI50 (HT-29) was > 100 µM (inactive) and the GI50 (Hs-578T) was > 100 µM (inactive). The GI50 (IGROV-1) was > 100 µM (inactive), the GI50 (K562) was > 100 µM (inactive) and the GI50 (KM12) was > 100 µM (inactive). For the same compound, the GI50 (LOX IMVI) was > 100 µM (inactive), the GI50 (M14) was > 100 µM (inactive) and the GI50 (MCF7) was > 100 µM (inactive). For the same compound, the GI50 (MDA-MB-231) was > 100 µM (inactive), the GI50 (MDA-MB-435) was > 100 µM (inactive) and the GI50 (MDA-N) was > 100 µM (inactive). For the same compound, the GI50 (MOLT-4) was > 100 µM (inactive), the GI50 (OVCAR-4) was > 100 µM (inactive) and the GI50 (OVCAR-5) was > 100 µM (inactive). For the same compound, the GI50 (OVCAR-8) was > 100 µM (inactive), the GI50 (PC-3) was > 100 µM (inactive) and the GI50 (RPMI-8226) was > 100 µM (inactive). The GI50 (RXF 393) was > 100 µM (inactive), the GI50 (SF-268) was > 100 µM (inactive) and the GI50 (SK-MEL-28) was > 100 µM (inactive). The GI50 (SK-MEL-2) was > 100 µM (inactive), the GI50 (SK-MEL-5) was > 100 µM (inactive) and the GI50 (SK-OV-3) was > 100 µM (inactive). For the same compound, the GI50 (SN12C) was > 100 µM (inactive), the GI50 (SNB-19) was > 100 µM (inactive) and the GI50 (SW-620) was > 100 µM (inactive). The GI50 (TK-10) was > 100 µM (inactive), the GI50 (U-251) was > 100 µM (inactive) and the GI50 (UACC-257) was > 100 µM (inactive). The GI50 (UACC-62) was > 100 µM (inactive).
